In ChEMBL document CHEMBL3421602, “Small molecule discoidin domain receptor kinase inhibitors and potential medical applications” (J Med Chem, 2015) one finds IC50 and Kd data, which are given here for seven molecules.

By pIC50 is commonly meant the negative decadic logarithm of the IC50, by convention in mol/L. One may read the pKd as the Kd on a negative log10 scale, so that one unit is a factor of ten. The low end stands for a high Kd, the high end for a low Kd.

pIC50, pKd: −log10 of the molar value. Numbered stars: 1 amine (or outer) side, 2 acyl side, 3 side chain; on linkers, the order of the positions; unused ones are H or OH. Bridge positions count the residues as written; N and C are the ends. Square brackets hold non-standard residues; d marks the D form. Peptide text beside a SMILES is read from it. I, II: the chains in the order shown. Actinocin(9to1) = Cc1c2oc3c(C)ccc(C(=O)[*:1])c3nc-2c(C(=O)[*:2])c(N)c1=O; NMeV = CN[C@H](C(=O)O)C(C)C; Sar = CNCC(=O)O

The target of test [1] is T1, Discoidin domain-containing receptor 2 (Homo sapiens, UniProt Q16832).
T1 sequence (Q16832 whole entry): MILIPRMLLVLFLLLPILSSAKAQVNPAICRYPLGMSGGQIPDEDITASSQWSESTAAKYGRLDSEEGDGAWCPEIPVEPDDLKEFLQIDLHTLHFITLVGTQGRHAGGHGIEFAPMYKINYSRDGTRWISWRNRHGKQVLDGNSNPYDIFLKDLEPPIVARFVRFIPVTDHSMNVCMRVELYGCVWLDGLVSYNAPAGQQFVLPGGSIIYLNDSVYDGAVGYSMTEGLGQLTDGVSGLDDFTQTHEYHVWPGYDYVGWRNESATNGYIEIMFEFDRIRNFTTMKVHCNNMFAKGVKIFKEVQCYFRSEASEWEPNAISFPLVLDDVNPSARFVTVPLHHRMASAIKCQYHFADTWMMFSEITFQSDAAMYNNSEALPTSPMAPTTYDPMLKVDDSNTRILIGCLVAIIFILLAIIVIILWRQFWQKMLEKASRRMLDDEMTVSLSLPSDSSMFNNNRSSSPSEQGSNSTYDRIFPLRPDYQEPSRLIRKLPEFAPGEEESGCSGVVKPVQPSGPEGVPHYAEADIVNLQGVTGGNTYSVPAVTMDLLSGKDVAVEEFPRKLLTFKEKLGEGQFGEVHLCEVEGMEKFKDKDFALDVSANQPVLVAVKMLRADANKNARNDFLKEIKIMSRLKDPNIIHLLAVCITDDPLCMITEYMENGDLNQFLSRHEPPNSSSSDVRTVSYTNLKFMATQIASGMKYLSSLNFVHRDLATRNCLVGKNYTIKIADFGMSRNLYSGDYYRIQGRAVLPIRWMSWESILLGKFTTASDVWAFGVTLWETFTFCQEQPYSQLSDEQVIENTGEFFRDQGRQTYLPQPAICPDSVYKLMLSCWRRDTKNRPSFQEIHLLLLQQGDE
As to the kind of experiment: Inhibition of human DDR2 expressed in HEK293 cells assessed as reduction in collagen-2-induced DDR2 phosphorylation. Format: cell-based.

The subject of the next test is U2OS. Briefly: Inhibition of cell proliferation of human U2OS cells over-expressing DDR1.
Test [2] addresses T1, Discoidin domain-containing receptor 2. As to the kind of experiment: Inhibition of recombinant non-activated DDR2 tyrosine kinase domain (unknown origin) using histone H2B peptide substrate and [32P]ATP incubated for 15 mins.
Test [3] shares this target. As to the kind of experiment: Inhibition of recombinant activated DDR2 tyrosine kinase domain (unknown origin) using histone H2B peptide substrate and [32P]ATP incubated for 15 mins.
Test [4] has the same target. As to the kind of experiment: Binding affinity to DDR2 (unknown origin) by active-site dependent competition binding assay.
Test [5] shares this target. Briefly: Inhibition of human DDR2 expressed in HEK293 cells assessed as reduction in collagen-1-induced DDR2 tyrosine phosphorylation pre-incubated for 30 mins by immunoblotting method. Format: cell-based. A general note: In western blotting, separated proteins are transferred to a membrane and probed.
The target of test [6] is T2, Epithelial discoidin domain-containing receptor 1 (Homo sapiens, UniProt Q08345). Briefly: Inhibition of human DDR1 kinase domain (601 to 913 residues) expressed in Sf9 cells by enzymatic kinase assay.
Test [7] concerns the target T2, Epithelial discoidin domain-containing receptor 1. As to the kind of experiment: Inhibition of human DDR1 in doxycycline-stimulated human U2OS cells assessed as inhibition of collagen-1-induced autophosphorylation incubated for 1 hr. It counts as cell-based.

T2 sequence (Q08345 whole entry, the tested form may be a part): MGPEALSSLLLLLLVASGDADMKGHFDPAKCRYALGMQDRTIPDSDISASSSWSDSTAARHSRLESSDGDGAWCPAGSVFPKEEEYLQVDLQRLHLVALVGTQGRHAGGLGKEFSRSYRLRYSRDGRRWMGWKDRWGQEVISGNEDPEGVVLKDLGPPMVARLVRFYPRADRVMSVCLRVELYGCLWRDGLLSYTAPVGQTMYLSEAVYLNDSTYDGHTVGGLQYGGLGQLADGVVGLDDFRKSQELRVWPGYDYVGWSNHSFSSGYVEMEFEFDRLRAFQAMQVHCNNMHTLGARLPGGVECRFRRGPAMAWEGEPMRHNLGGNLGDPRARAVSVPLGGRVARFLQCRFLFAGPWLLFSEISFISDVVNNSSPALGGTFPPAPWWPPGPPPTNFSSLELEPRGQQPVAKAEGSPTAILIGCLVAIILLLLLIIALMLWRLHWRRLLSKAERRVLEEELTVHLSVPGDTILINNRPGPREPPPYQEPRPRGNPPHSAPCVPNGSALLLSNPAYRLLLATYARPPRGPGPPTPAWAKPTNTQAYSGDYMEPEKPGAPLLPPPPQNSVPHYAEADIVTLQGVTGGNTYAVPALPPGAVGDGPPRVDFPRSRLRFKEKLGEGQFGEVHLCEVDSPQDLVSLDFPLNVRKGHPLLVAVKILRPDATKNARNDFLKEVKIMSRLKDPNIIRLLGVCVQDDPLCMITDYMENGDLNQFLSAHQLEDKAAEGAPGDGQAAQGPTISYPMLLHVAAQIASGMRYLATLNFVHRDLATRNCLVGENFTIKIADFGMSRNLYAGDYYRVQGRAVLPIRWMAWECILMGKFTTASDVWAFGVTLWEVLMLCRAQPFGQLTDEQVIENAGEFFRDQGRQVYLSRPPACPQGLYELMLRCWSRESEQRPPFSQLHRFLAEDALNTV

With `CNC(=O)c1cc(Oc2ccc(CNC(=O)Nc3cc(Cl)ccc3OC)cc2C)ccn1`, the negative logarithm of the IC50 (pIC50) in test [1] was 7.52.
For `CCS(=O)(=O)c1ccc(Cl)cc1CNC(=O)c1ccc(CN2CCN(C)CC2)c(C(F)(F)F)c1`, the pIC50 with U2OS was 6.36.
As for `Oc1cccc(Nc2ccnc3cc(-c4cccc(CN5CCOCC5)c4)sc23)c1`, the pIC50 in test [2] is 6.84; in test [3] it was 8.22.
For the molecule `CCc1ccc(C(=O)Nc2cc(CN3CCN(C)CC3)cc(C(F)(F)F)c2)cc1C#Cc1cnc2ccnn2c1`, in test [4], the pKd is 9.22.
Consider `Cc1c2oc3c(C)ccc(C(=O)N[C@@H]4C(=O)N[C@H](C(C)C)C(=O)N5CCC[C@H]5C(=O)N(C)CC(=O)N(C)[C@@H](C(C)C)C(=O)O[C@@H]4C)c3nc-2c(C(=O)N[C@@H]2C(=O)N[C@H](C(C)C)C(=O)N3CCC[C@H]3C(=O)N(C)CC(=O)N(C)[C@@H](C(C)C)C(=O)O[C@@H]2C)c(N)c1=O` [DACTINOMYCIN] (I: T[dV]P[Sar][NMeV] / II: T[dV]P[Sar][NMeV]; ester I:1-I:C, II:1-II:C; linker I:N-II:N via Actinocin(9to1)), for which, in test [5], the pIC50 was 5.05.
In the case of `Cn1cc(C(F)(F)F)cc(NC(=O)NCc2ccc(Oc3ccnc4c3CNC(=O)N4)cc2)c1=O`, the pIC50 in test [1] was 7.82.
On to `CCN1CCN(Cc2ccc(C(=O)Nc3ccc(C)c(NCc4cnc5[nH]ccc5c4OC)c3)cc2C(F)(F)F)CC1`, for which the negative logarithm of the IC50 (pIC50) is 7.33 in test [6] and 8.05 in test [7].
